Assay results taken from ChEMBL document CHEMBL3430912, “GSK Tres Cantos Anti-Kinetoplastid Screening (TCAKS) Data”.

Tests used:
Leishmania donovani [1] = assay: GSK_TCAKS: pIC50 Leishmania donovani viability assay using fluorescence intensity. Assay plates (1536-well) were prepared by adding 30nL per well of compound. For single shot assay, the final compound concentration was 5uM. […] Briefly, eGFP LdBOB axenic amastigotes were harvested, fixed and counted in a CASY cell counter (Roche-Applied Science). A final concentration of 1.5 * 10^5 cells per well were prepared in amastigote media containing 500 U/mL penicillin/streptomycin (Invitrogen) and 6uL was dispensed to each experimental well using a Multidrop Combi dispenser (Thermo Scientific). 6uL of assay media was dispensed to control columns used as reference for 100% compound response. Following incubation for 72 h at 37C, 5% CO2, 2 uL of resazurin was added to each well at a final concentration of 0.5 mM in phosphate buffered saline (PBS) with IGEPAL (Sigma-Aldrich), 0.05% (v/v).; assay type: functional, organism-based
[2] = GSK_TCAKS: pIC50 HepG2 human cell line viability assay using luminiscence. […] Seeding density was checked to ensure that new mono-layers were not more than 50% confluent at the time of harvesting. Cell suspension was added to 500 mL of the same medium at a final density of 1.2 * 10^5 cells/mL. This cell suspension was dispensed (25 uL, 3000 cells per well) into 384-well clear-bottom plates using a Multidrop Combi dispenser. Prior to addition of the cell suspension, the screening compounds (250 nL) were pre-dispensed into the plates with an Echo liquid handler. Plates were incubated for 48 h at 37C, 5% CO2. After incubation, plates equilibrated at room temperature for 30 min before proceeding to develop the luminescent signal. The signal developer, CellTiter-Glo Reagent, was allowed to equilibrate at room temperature for 30 min and added to the plates (25uL per well) using a Multidrop Combi dispenser. Plates were left for 10 min at room temperature for stabilization and then read using a ViewLux.; assay type: toxicity, cell-based
Trypanosoma cruzi [3] = assay: (§1) GSK_TCAKS: pIC50 Trypanosoma cruzi Imaging: Amastigotes/Cell. […] Cells were then washed once with PBS before infection. T. cruzi trypomastigotes, collected at days 5 to 8 after infection from LLC-MK2 parasite infected cultures, were allowed to swim out for 4h at 37C from a centrifuged pellet (2,500 rpm/10 min/room temperature). Trypomastigotes were then collected and counted in a CASY Cell Counter. Trypomastigotes, in supplemented DMEM, were added to H9c2 cultures in a multiplicity of infection of 1 and incubated for 18 h. Cells were washed once with PBS before incubation of the infected H9c2 monolayer with trypsin (Life-Technologies) to detach cells from the flask. Cells were counted in a CASY Cell Counter using a 150 um capillary and their density set at 5 * 10^4 cells per mL in supplemented assay DMEM. Infected H9c2 were dispensed into 384-well poly-lysine coated assay plates at 50uL per well using a Multidrop Combi dispenser. After seeding them, the plates were incubated at 37C, 5% CO2 for 72h. Cultures were then fixed and stained by addition of 50 uL of a solution containing 8% formaldehyde and 4 uM DRAQ5 DNA dye (BioStatus, UK) per well. […] Five images were collected per well for reliable statistical analysis. Automated image analysis was performed with a script developed on Acapella High Content Imaging and Analysis Software (PerkinElmer). Output: number of amastigotes per cell as infection level measurement.; assay type: functional, organism-based, Rattus norvegicus; settings: H9c2, 4 h
Trypanosoma cruzi [4] = assay: as §1, with “H2C9” for “Trypanosoma cruzi”, “H9c2 Host Cardiomyocytes.” for “Amastigotes/Cell.”, “Number” for “number”, “H9c2 Host Cardiomyocytes nuclei to determine drug-related cytotoxicity.” for “amastigotes per cell as infection level measurement.”; assay type: functional, organism-based, Rattus norvegicus; settings: H9c2, 4 h
Trypanosoma cruzi [5] = assay: GSK_TCAKS: pIC50 Trypanosoma cruzi Imaging: Infected Cells. […] Cells were then washed once with PBS before infection. T. cruzi trypomastigotes, collected at days 5 to 8 after infection from LLC-MK2 parasite infected cultures, were allowed to swim out for 4h at 37C from a centrifuged pellet (2,500 rpm/10 min/room temperature). Trypomastigotes were then collected and counted in a CASY Cell Counter. Trypomastigotes, in supplemented DMEM, were added to H9c2 cultures in a multiplicity of infection of 1 and incubated for 18 h. Cells were washed once with PBS before incubation of the infected H9c2 monolayer with trypsin (Life-Technologies) to detach cells from the flask. Cells were counted in a CASY Cell Counter using a 150 um capillary and their density set at 5 * 10^4 cells per mL in supplemented assay DMEM. Infected H9c2 were dispensed into 384-well poly-lysine coated assay plates at 50uL per well using a Multidrop Combi dispenser. After seeding them, the plates were incubated at 37C, 5% CO2 for 72h. Cultures were then fixed and stained by addition of 50 uL of a solution containing 8% formaldehyde and 4 uM DRAQ5 DNA dye (BioStatus, UK) per well. […] Five images were collected per well for reliable statistical analysis. Automated image analysis was performed with a script developed on Acapella High Content Imaging and Analysis Software (PerkinElmer). Output: percentage of infected cells per well as a second infection marker.; assay type: functional, organism-based, Rattus norvegicus; settings: H9c2, 4 h
[6] = test system: Trypanosoma brucei brucei; assay: GSK_TCAKS: pIC50 Trypanosoma brucei viability assay using fluorescence intensity. Assay plates (1536-well) were prepared by dispensing 25nL of compound solution per well using an Echo acoustic dispenser (Labcyte).; assay type: functional, organism-based; settings: Lister 427, 2 h
Trypanosoma cruzi [7] = assay: GSK_TCAKS: pIC50 Trypanosoma cruzi viability assay using beta-GAL activity. This assay was run at single shot at 5uM compound concentration per well. The biological reagents consisted of NIH-3T3 host cells and trypomastigotes parasitic cells; both cell types were set to a 3.3 * 10^5 cells/mL dilution in assay DMEM by means of a CASY cell counter device using a 60um capillary. 6 uL of the mixture were dispensed per well (about 1 * 10^3 host-cells and 1 * 10^3 parasites) with a Multidrop Combi dispenser. […] In all wells, the percentage of DMSO never exceeded 0.5%. Plates incubated for four days at 37C, 5% CO2. The substrate used for the assay fluorescence intensity (FLINT) readout was resorufin-beta-D-galactopiranoside (Sigma-Aldrich) at 5uM per well. It was diluted in PBS supplemented with the soft detergent Igepal (Fluka).; assay type: functional, organism-based, Mus musculus; settings: Tulahuen, NIH3T3
Leishmania donovani [8] = assay: GSK_TCAKS: pIC50 Leishmania donovani Imaging: THP-1 Host Macrophages. Assay plates (384-well) were prepared by adding 250nL of compound to each well. For single shot assay, the final compound concentration was 5 uM. […] Automated image analysis was performed with a script developed on Acapella High Content Imaging and Analysis Software (PerkinElmer). Output: THP-1 cell count were reported for each well.; assay type: functional, organism-based, Homo sapiens
Leishmania donovani [9] = assay: GSK_TCAKS: pIC50 Leishmania donovani Imaging: Infected Macrophages. Assay plates (384-well) were prepared by adding 250nL of compound to each well. For single shot assay, the final compound concentration was 5 uM. […] Automated image analysis was performed with a script developed on Acapella High Content Imaging and Analysis Software (PerkinElmer). Output: Percent of infected macrophage cells were reported for each well.; assay type: functional, organism-based, Homo sapiens; settings: THP-1
[10] = test system: Trypanosoma brucei brucei; assay: GSK_TCAKS: pIC50 Trypanosoma brucei viability assay using luminiscence. Assay plates (1536-well) were prepared. T. brucei cultures were harvested and counted in a CASY cell counter. A parasite suspension was prepared at a final concentration of 5 * 10^4 cells/mL in complete HMI9 medium and 6uL was dispensed to all wells containing compounds using a Multidrop Combi dispenser. 6uL of HMI9 media with 0.4% DMSO were dispensed to control columns. Plates were incubated for 24 h at 37C, 5% CO2 then tempered for 10 min at room temperature. ATP content was quantified by adding 4 uL of CellTiter-Glo Reagent (Promega) according to the manufacturer's instructions. Luminescence was measured using a ViewLux.; assay type: functional, organism-based; settings: Lister 427, CASY
Leishmania donovani [11] = assay: GSK_TCAKS: pIC50 Leishmania donovani Imaging: Amastigotes/Macrophages. Assay plates (384-well) were prepared by adding 250nL of compound to each well. For single shot assay, the final compound concentration was 5 uM. […] Automated image analysis was performed with a script developed on Acapella High Content Imaging and Analysis Software (PerkinElmer). Output: Average number of amastigotes per macrophage cell were reported for each well.; assay type: functional, organism-based, Homo sapiens; settings: THP-1
[12] = target: Sterol 14-alpha demethylase (Trypanosoma cruzi (strain CL Brener), UniProt Q7Z1V1); assay: GSK_TCAKS: pIC50 CYP51 from Trypanosoma cruzi.; assay type: functional
Sterol 14-alpha demethylase, sequence (Q7Z1V1 whole entry): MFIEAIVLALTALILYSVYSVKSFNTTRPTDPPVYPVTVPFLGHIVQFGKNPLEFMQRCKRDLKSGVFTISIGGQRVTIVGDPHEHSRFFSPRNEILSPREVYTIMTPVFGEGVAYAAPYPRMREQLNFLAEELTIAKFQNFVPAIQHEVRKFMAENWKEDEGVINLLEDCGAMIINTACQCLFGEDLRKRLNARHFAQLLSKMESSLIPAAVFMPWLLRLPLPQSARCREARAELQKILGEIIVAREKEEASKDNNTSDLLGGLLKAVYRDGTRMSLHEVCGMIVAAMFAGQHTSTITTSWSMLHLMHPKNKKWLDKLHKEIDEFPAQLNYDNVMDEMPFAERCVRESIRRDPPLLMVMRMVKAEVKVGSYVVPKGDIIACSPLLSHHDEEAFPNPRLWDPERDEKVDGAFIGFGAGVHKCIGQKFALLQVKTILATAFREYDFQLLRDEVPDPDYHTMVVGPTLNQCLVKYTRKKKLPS

SMILES | IC50 (Leishmania donovani [1]) | IC50 at 48 h [2] | IC50 (Trypanosoma cruzi [3]) | IC50 (Trypanosoma cruzi [4]) | IC50 (Trypanosoma cruzi [5]) | IC50 [6] | IC50 (Trypanosoma cruzi [7]) | IC50 (Leishmania donovani [8]) | IC50 (Leishmania donovani [9]) | IC50 [10] | IC50 (Leishmania donovani [11]) | IC50 [12]
CCCCN(C(=O)c1ccc(NC(=O)C(C)C)cc1)c1ccccc1 | 1 µM | > 100 µM | 10 µM | > 50.1 µM | > 50.1 µM | 15.8 µM | 20 µM | > 50.1 µM | 5.01 µM | > 39.8 µM | 3.16 µM | 12.6 µM
CCc1ccc2nc(NC(=O)c3cc(N4CCOCC4)ccn3)sc2c1 | 2 µM | > 100 µM | 0.501 µM | 39.8 µM | 0.794 µM | 0.501 µM | 2.51 µM | 10 µM | 1.26 µM | 1 µM | 0.794 µM | > 100 µM
Nc1nonc1-c1nc2cncc(C(=O)N3CC[C@H](N)C3)c2n1CC1CC1 | > 50.1 µM | > 100 µM | 12.6 µM | > 50.1 µM | > 50.1 µM | 0.631 µM | > 50.1 µM | 12.6 µM | 20 µM | 0.794 µM | 39.8 µM | 12.6 µM
Cn1ccnc1CN1CCc2[nH]cnc2C1c1ccccc1OCc1ccccc1 (configuration not stated) | > 50.1 µM | > 100 µM | > 50.1 µM | > 50.1 µM | > 50.1 µM | 0.398 µM | 39.8 µM | > 50.1 µM | > 50.1 µM | 0.501 µM | > 50.1 µM | 7.94 µM
CN1CCC(N(C)c2nccc(N3CCN(C(=O)c4cccc(-c5cccnc5)c4)CC3)n2)CC1 | > 50.1 µM | 39.8 µM | 1 µM | 7.94 µM | 1.26 µM | 0.794 µM | 0.316 µM | 7.94 µM | 1.26 µM | 1 µM | 1.26 µM | 1.58 µM
CC(C)c1sc(Cl)nc1C(=O)NCCc1nc(C(=O)Nc2ccc3c(c2)OCO3)cs1 | 3.98 µM | > 100 µM | 0.631 µM | > 50.1 µM | 1 µM | 25.1 µM | 4.47 µM | > 50.1 µM | 5.01 µM | 25.1 µM | 2.51 µM | 7.94 µM
Cc1cc(N2CCc3ccccc3C2)nc(Nc2ccc(S(=O)(=O)N3CCOCC3)cc2)n1 | 3.16 µM | > 100 µM | 25.1 µM | > 50.1 µM | > 50.1 µM | 31.6 µM | > 50.1 µM | 25.1 µM | 5.01 µM | > 39.8 µM | 1.58 µM | > 100 µM
N#Cc1cccc(Nc2nccc(N3CCC(NS(=O)(=O)c4cccc(C#N)c4)CC3)n2)c1 | 0.631 µM | 50.1 µM | 3.16 µM | 31.6 µM | 7.94 µM | 6.31 µM | 1.58 µM | > 50.1 µM | 10 µM | 6.31 µM | 6.31 µM | 7.94 µM
CCC(CC)C(=O)Nc1ccc(-c2nnc(-c3ccc(OC)cc3)o2)cc1 | > 50.1 µM | > 100 µM | 3.98 µM | > 50.1 µM | 12.6 µM | 0.501 µM | 5.01 µM | > 50.1 µM | > 50.1 µM | 0.501 µM | > 50.1 µM | 12.6 µM
Cc1nn2c(=O)c3c([nH]c2c1-c1ccc(Cl)cc1)CCCC3 | 1.26 µM | > 100 µM | 0.251 µM | > 50.1 µM | 1 µM | 0.158 µM | 0.398 µM | 12.6 µM | > 50.1 µM | 0.316 µM | > 50.1 µM | > 100 µM
O=C(N[C@H](CO)c1ccccc1)c1ccc(-c2c[nH]c3nccc(C(F)(F)F)c23)s1 | 31.6 µM | 63.1 µM | 10 µM | 12.6 µM | 10 µM | 0.158 µM | 7.94 µM | 12.6 µM | 25.1 µM | 0.398 µM | 15.8 µM | 6.31 µM
